Laboratory results from patent US6645976B1 (Eli Lilly and Company, priority 1994, dated 2003).

Columns and labels:
[1] = target: T1, recombinant human secreted phospholipase A2 (Homo sapiens, UniProt P14555); test: sPLA2 Chromogenic Assay (Assay 1); format: biochemical; conditions: diheptanoyl thio-PC substrate, pH 7.5, 40° C. for 30 minutes, absorbance at 405 nanometers
T1 sequence (P14555 21-144): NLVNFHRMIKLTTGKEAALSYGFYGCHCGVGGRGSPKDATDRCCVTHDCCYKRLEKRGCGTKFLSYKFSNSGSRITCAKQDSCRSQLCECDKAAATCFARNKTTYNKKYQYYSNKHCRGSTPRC

| IC50 [1] | melting point | SMILES |
| --- | --- | --- |
| 17 nM | 176 to 177 °C | CCCC(CCC)Cc1c(CC)c(C(=O)C(N)=O)c2c(OCC(=O)O)cccn12 [Compound 52f, 2-(8-Carboxymethyloxy-2-ethyl-3-(2-propylpentyl)indolizin-1-yl)glyoxylamide] |
| 890 nM | 198 to 199 °C | Cc1c(C(=O)C(N)=O)c2ccccn2c1Cc1ccccc1 [Compound 34, (3-Benzyl-2-methylindolizin-1-yl)glyoxylamide] |
| 43 nM | 229 to 234 °C | NC(=O)C(=O)c1c(C2CC2)c(CC2CCCCC2)n2cccc(OCC(=O)O)c12 [Compound 58k, 2-(8-carboxymethoxyl-3-cyclohexylmethyl-2-cyclopropylindolizin-1-yl)glyoxylamide] |
| 44 nM | 191 to 192 °C | CCOC(=O)COc1cccn2c(Cc3ccccc3)c(CC)c(C(=O)C(N)=O)c12 [Compound 37a, (3-Benzyl-8-(carbethoxymethyloxy)-2-ethylindolizin-1-yl)glyoxylamide] |
| 550 nM | 147 to 148 °C | CCc1c(C(=O)C(N)=O)c2c(OCC(=O)OC)cccn2c1CC1CCCCCC1 [Compound 51d, 2-(8-(Carbomethoxymethyloxy)-3-cycloheptylmethyl-2-ethylindolizin-1-yl)glyoxylamide] |
| 490 nM | 195 to 197 °C | Cc1c(C(=O)C(N)=O)c2c(OCc3ccncc3)cccn2c1Cc1ccccc1-c1ccccc1 [Compound 59o, 2-(3-Biphenyl-2-ylmethyl-2-methyl-8-(pyridin-4-ylmethoxy)-indolizin-1-yl)-glyoxylamide] |
| 47 nM | 212 to 214 °C | Cc1c(C(=O)C(N)=O)c2c(OCc3ccccc3)cccn2c1Cc1ccccc1 [Compound 35g, (3-Benzyl-8-benzyloxy-2-methylindolizin-1-yl)glyoxylamide] |
| 10 nM | 209 to 210 °C | CCc1c(C(=O)C(N)=O)c2c(OCC(=O)O)cccn2c1Cc1sccc1-c1cccs1 [Compound 52l, 2-(8-(Carboxymethyloxy)-2-ethyl-3-((3-thiophen-2-yl)thiophen-2-ylmethyl)indolizin-1-yl)glyoxylamide] |
| 113 nM | 159 to 162 °C | CCc1c(C(=O)C(N)=O)c2c(OCC(=O)OCC(C)=O)cccn2c1Cc1ccccc1-c1ccccc1 [Compound 59k, 2-(3-(Biphenyl-2-yl-methyl)-2-ethyl-8-(2-oxopropyloxycarbonylmethoxy)indolizine-1-yl)glyoxylamide] |
| 310 nM | 155 to 157 °C | CCc1c(C(=O)C(N)=O)c2c(OCC(=O)OC)cccn2c1Cc1cccc(OC)c1 [Compound 51m, 2-(2-Ethyl-8-(carbomethoxymethyloxy)-3-(m-methoxybenzyl)indolizine-1-yl)glyoxylamide] |
| 38 nM | 222 to 224 °C | CCc1c(C(=O)C(N)=O)c2c(OCC(=O)O)cccn2c1CC=Cc1ccccc1 [Compound 58h, 2-(8-Carboxymethyloxy-2-ethyl-^3-(3-phenyl-2-propenyl)indlolin-1-yl)glyoxylamide] |
| 430 nM | 158 to 159 °C | CCc1c(C(=O)C(N)=O)c2c(OCC(=O)OC)cccn2c1CC1CCCC1 [Compound 51c, 2-(8-(Carbomethoxymethyloxy)-3-cyclopentylmethyl-2-ethylindolizin-1-yl)glyoxylamide] |
| 51 nM | 215 to 217 °C | CCc1c(C(=O)C(N)=O)c2c(OCC(=O)O)cccn2c1CCCc1ccccc1 [Compound 58i, 2-(8-Carboxymethyloxy-2-ethyl-3-(3-phenyl-2-propanyl)indlolin-1-yl)glyoxylamide] |
| 790 nM | 191 to 192 °C | CCc1c(C(=O)C(N)=O)c2c(OCc3ccccc3)cccn2c1Cc1cccs1 [Compound 49k, 2-(8-Benzyloxy-2-ethyl-3-(thiophen-2-ylmethyl)indolizin-1-yl)glyoxylamide] |
